In the supplement of paper PMC10307832:

How the values were obtained:
Assay in all cases: relative viability (nuclei count vs DMSO), 5 days (fraction); higher = more cells survive
4EGI-1 + Phenformin = compound: O=C(O)C(Cc1ccccc1[N+](=O)[O-])=NNc1nc(-c2ccc(Cl)c(Cl)c2)cs1 (mixture of isomers) [4EGI-1] + N=C(N)NC(=N)NCCc1ccccc1 [Phenformin] (partner 250 µM)
How it was run: (§1)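 Medians of duplicate plates are given as relative viability. That measure is the nuclei count in treated wells divided by the count in vehicle wells. Counts were taken on 4× images of lung cancer cell lines in 1536-well plates, 5 days after pin-tool dosing the day after seeding with one drug alone or a fixed anchor-drug dose plus five library-drug doses (not always all listed) in √10 steps.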

4EGI-1 + Alpelisib = compound: O=C(O)C(Cc1ccccc1[N+](=O)[O-])=NNc1nc(-c2ccc(Cl)c(Cl)c2)cs1 (mixture of isomers) [4EGI-1] + Cc1nc(NC(=O)N2CCC[C@H]2C(N)=O)sc1-c1ccnc(C(C)(C)C(F)(F)F)c1 [Alpelisib] (partner 2 µM)
How it was run: as §1

4EGI-1 + Tozasertib = compound: O=C(O)C(Cc1ccccc1[N+](=O)[O-])=NNc1nc(-c2ccc(Cl)c(Cl)c2)cs1 (mixture of isomers) [4EGI-1] + Cc1cc(Nc2cc(N3CCN(C)CC3)nc(Sc3ccc(NC(=O)C4CC4)cc3)n2)n[nH]1 [Tozasertib] (partner 0.1 µM)
How it was run: as §1

4EGI-1 + Palbociclib = compound: O=C(O)C(Cc1ccccc1[N+](=O)[O-])=NNc1nc(-c2ccc(Cl)c(Cl)c2)cs1 (mixture of isomers) [4EGI-1] + CC(=O)c1c(C)c2cnc(Nc3ccc(N4CCNCC4)cn3)nc2n(C2CCCC2)c1=O [Palbociclib] (partner 0.5 µM)
How it was run: as §1

Row | Cell Line | relative viability (4EGI-1 + Phenformin; first compound 0.5 µM) | relative viability (4EGI-1 + Phenformin; first compound 5 µM) | relative viability (4EGI-1 + Phenformin; first compound 15.81 µM) | relative viability (4EGI-1 + Phenformin; first compound 50 µM) | relative viability (4EGI-1 + Alpelisib; first compound 0.5 µM) | relative viability (4EGI-1 + Alpelisib; first compound 5 µM) | relative viability (4EGI-1 + Alpelisib; first compound 15.81 µM) | relative viability (4EGI-1 + Alpelisib; first compound 50 µM) | relative viability (4EGI-1 + Tozasertib; first compound 0.5 µM) | relative viability (4EGI-1 + Tozasertib; first compound 5 µM) | relative viability (4EGI-1 + Tozasertib; first compound 15.81 µM) | relative viability (4EGI-1 + Tozasertib; first compound 50 µM) | relative viability (4EGI-1 + Palbociclib; first compound 0.5 µM) | relative viability (4EGI-1 + Palbociclib; first compound 1.581 µM) | relative viability (4EGI-1 + Palbociclib; first compound 5 µM) | relative viability (4EGI-1 + Palbociclib; first compound 15.81 µM) | relative viability (4EGI-1 + Palbociclib; first compound 50 µM) | relative viability (4EGI-1 + Phenformin; first compound 1.581 µM) | relative viability (4EGI-1 + Alpelisib; first compound 1.581 µM) | relative viability (4EGI-1 + Tozasertib; first compound 1.581 µM)
1 | NCI-H838 | 0.605 | 0.623 | 0.487 | 0.153 | 1.02 | 1.06 | 0.907 | 0.524 | 0.261 | 0.263 | 0.235 | 0.172 | 0.237 | 0.223 | 0.228 | 0.2 | 0.119 | – | – | –
2 | COR-L 105 | 0.46 | 0.488 | 0.375 | 0.31 | 1.2 | 1.04 | 0.89 | 0.599 | 0.369 | 0.343 | 0.286 | 0.366 | 0.386 | 0.419 | 0.434 | 0.334 | 0.344 | 0.442 | 0.818 | 0.343
3 | HCC-366 | 0.676 | 0.741 | 0.631 | 0.443 | 0.642 | 0.399 | 0.5 | 0.331 | 0.131 | 0.0608 | 0.0943 | 0.0321 | 0.396 | 0.224 | 0.396 | 0.272 | 0.0604 | 0.569 | 0.364 | 0.0938
4 | NCI-H650 | 0.455 | 0.451 | 0.47 | 0.31 | 1.15 | 1.25 | 1.15 | 0.92 | 0.858 | 0.777 | 0.644 | 0.626 | 0.319 | – | 0.295 | 0.319 | 0.33 | – | – | –
5 | NCI-H1299 | – | – | – | – | 1.03 | 0.989 | 0.955 | 1.04 | – | – | – | – | – | – | – | – | – | – | 1.08 | –
6 | LCLC-97TM1 | 0.456 | 0.437 | 0.404 | 0.375 | 0.213 | 0.239 | 0.236 | 0.211 | 0.231 | 0.215 | 0.219 | 0.102 | 0.224 | – | 0.227 | 0.177 | 0.123 | 0.343 | – | 0.184
7 | NCI-H1666 | 0.537 | 0.563 | 0.51 | 0.398 | 1.08 | 1.15 | 0.403 | 0.212 | 0.61 | 0.647 | 0.448 | 0.328 | 0.673 | 0.693 | 0.633 | 0.641 | 0.598 | 0.554 | 1.07 | 0.535
8 | NCI-H1993 | 0.536 | 0.481 | 0.631 | 0.5 | 0.714 | 0.72 | 0.675 | 0.659 | 0.552 | 0.563 | 0.511 | 0.492 | 0.727 | 0.624 | 0.584 | 0.52 | 0.366 | 0.452 | 0.666 | 0.627
9 | BEN | 0.278 | 0.281 | 0.241 | 0.269 | 1.05 | 1.11 | 1.07 | 0.915 | 0.631 | 0.53 | 0.475 | 0.461 | 0.452 | 0.455 | 0.498 | 0.46 | 0.458 | 0.267 | 1.17 | 0.626
10 | HCC-827 | 0.403 | 0.396 | – | 0.353 | 1.07 | 0.897 | – | 0.85 | 0.428 | 0.415 | – | 0.358 | 0.521 | 0.403 | 0.565 | – | 0.5 | 0.394 | 0.957 | 0.422
11 | HOP-62 | 0.677 | 0.73 | 0.667 | 0.537 | 1.13 | 1.12 | 1.13 | 0.745 | 0.385 | 0.403 | 0.34 | 0.211 | 0.449 | 0.416 | 0.489 | 0.505 | 0.319 | 0.446 | – | 0.257
12 | NCI-H1355 | 0.469 | 0.45 | 0.413 | 0.33 | 0.876 | 0.772 | 0.477 | 0.504 | 0.551 | 0.559 | 0.429 | 0.291 | 0.415 | 0.396 | 0.406 | 0.337 | 0.316 | 0.439 | 0.79 | 0.551
13 | A549 | 0.154 | 0.172 | 0.148 | 0.0933 | 0.801 | 0.984 | 0.611 | 0.273 | – | – | – | – | – | – | – | – | – | – | 0.479 | –
14 | A-427 | 0.331 | 0.326 | 0.274 | 0.156 | 1.04 | 1.07 | 0.991 | 0.759 | 0.192 | 0.189 | 0.205 | 0.0979 | 0.543 | – | 0.535 | 0.492 | 0.319 | 0.316 | 0.968 | 0.195
15 | NCI-H358 | 0.311 | 0.343 | 0.215 | 0.111 | 0.966 | 0.96 | 0.653 | 0.175 | 0.102 | 0.102 | 0.102 | 0.0781 | 0.12 | 0.153 | 0.152 | 0.153 | 0.12 | 0.297 | 0.817 | 0.117
16 | NCI-H23 | 0.884 | 0.763 | 0.826 | 0.706 | 0.905 | 0.915 | 0.794 | 0.611 | 0.393 | 0.471 | 0.382 | 0.214 | 0.541 | – | 0.614 | 0.393 | 0.272 | – | – | –
17 | LXF-289 | 0.535 | 0.513 | 0.485 | 0.291 | 1.17 | 1.04 | 0.89 | 0.516 | 0.203 | 0.204 | 0.151 | 0.168 | 0.603 | 0.602 | 0.582 | 0.553 | 0.518 | 0.514 | 1.01 | 0.22
18 | NCI-H1975 | 0.444 | 0.407 | 0.442 | 0.361 | 0.673 | 0.702 | 0.627 | 0.469 | 0.773 | 0.785 | 0.523 | 0.179 | 0.725 | 0.565 | 0.527 | 0.665 | 0.41 | 0.356 | 0.81 | 0.653
